Measured values from patent US10472346B2, “Potent gamma-secretase modulators” (The General Hospital Coporation, priority 2014, dated 2019).

The molecules below were run on Aβ42 (assay: Aβ42 IC50 assay (SHSYSY-APP cell-based screening, UCSD sandwich Aβ42 ELISA)).
Excerpt: FIG. 8: Representative concentration response curves of Compound 1 using our primary and orthogonal medium throughput SHSYSY-APP cell-based screening assays (10). Compounds are first screened two times in triplicate in our UCSD sandwich Aβ42 ELISA on sequential days and the average of the two assays must be within 3-fold of each other before being entered into the CDD relational database. The UCSD sandwich ELISA assay can easily handle 20 compounds per week. Compounds with Aβ42 IC50 values <100 nM continue through the testing funnel. The Z′ score and the % CV for the UCSD Aβ42 sandwich ELISA assay are 0.8 and 4, respectively. For the Meso Scale triplex assay the Z′ scores are 0.7, 0.9 and 0.6 Aβ42, Aβ40 and Aβ38, respectively and the % CV's are 7, 2 and 1 for Aβ42, Aβ40 and Aβ38, respectively. Aβ total peptides are measured using a sandwich ELISA.
Tabular Results of A1142 Assays Conducted on Compounds of Examples 5-102. Assays are Aβ42 IC50 (nM).

Q: With `COc1nc(-c2cc(C)c(NC(C)Cc3ccc(F)cc3)nn2)ccc1-n1cnc(C)c1` (racemic) [Example 54, (+/−)—N-(1-(4-fluorophenyl)propan-2-yl)-6-(6-methoxy-5-(4-methyl-1H-imidazol-1-yl)pyridin-2-yl)-4-methylpyridazin-3-amine] as the molecule, how does the IC50 read?
A: Its IC50 is 29 nM.

Q: Which IC50 does the source give for `COc1nc(-c2cc(C)c(NC(C)c3nc4ccccc4o3)nn2)ccc1-n1cnc(C)c1` (racemic) [Example 74, (+/−)—N-(1-(benzo[d]oxazol-2-yl)ethyl)-6-(6-methoxy-5-(4-methyl-1H-imidazol-1-yl)pyridin-2-yl)-4-methylpyridazin-3-amine] here?
A: The IC50 was 42 nM.

Q: For `CCc1cc(-c2ccc(-n3cnc(C)c3)c(OC)n2)nnc1N[C@@H](C)c1ccc(F)cc1` [Example 5, (S)-4-Ethyl-N-(1-(4-fluorophenyl)ethyl)-6-(6-methoxy-5-(4-methyl-1H-imidazol-1-yl)pyridin-2-yl)pyridazin-3-amine], which IC50 is on record?
A: The IC50 was 7.8 nM.

Q: How did the IC50 turn out when `CCc1cc(-c2ccc(-n3cnc(C)c3)c(OC)n2)nnc1N[C@@H](C)c1ccccc1` [Example 7, (S)-4-ethyl-6-(6-methoxy-5-(4-methyl-1H-imidazol-1-yl)pyridin-2-yl)-N-(1-phenylethyl)pyridazin-3-amine] was run?
A: Its IC50 is 5.5 nM.

Q: `CCc1cc(-c2ccc(-n3cnc(C)c3)c(OC)n2)nnc1NCc1ccc(F)cc1` [Example 8, 4-ethyl-N-(4-fluorobenzyl)-6-(6-methoxy-5-(4-methyl-1H-imidazol-1-yl)pyridin-2-yl)pyridazin-3-amine] was tested. Which IC50 did it give?
A: The IC50 was 33 nM.

Q: Which IC50 does the source give for `CCc1cc(-c2ccc(-n3cnc(C)c3)c(OC)n2)nnc1N[C@H](C)c1ccccc1` [Example 9, (R)-4-ethyl-6-(6-methoxy-5-(4-methyl-1H-imidazol-1-yl)pyridin-2-yl)-N-(1-phenylethyl)pyridazin-3-amine] here?
A: Its IC50 is 46 nM.

Q: How did the IC50 turn out when `CCc1cc(-c2ccc(-n3cnc(C)c3)c(OC)n2)nnc1N[C@H](C)c1ccc(F)cc1` [Example 10, (R)-4-ethyl-N-(1-(4-fluorophenyl)ethyl)-6-(6-methoxy-5-(4-methyl-1H-imidazol-1-yl)pyridin-2-yl)pyridazin-3-amine] was run?
A: The IC50 was 47.5 nM.

Q: `COc1nc(-c2cc(C(C)C)c(N[C@@H](C)c3ccc(F)cc3)nn2)ccc1-n1cnc(C)c1` [Example 11, (S)—N-(1-(4-fluorophenyl)ethyl)-4-isopropyl-6-(6-methoxy-5-(4-methyl-1H-imidazol-1-yl)pyridin-2-yl)pyridazin-3-amine] was tested. Which IC50 did it give?
A: The IC50 was 7.5 nM.

Q: For `COc1nc(-c2cc(C(C)C)c(N[C@@H](C)c3ccccc3)nn2)ccc1-n1cnc(C)c1` [Example 14, (S)-4-isopropyl-6-(6-methoxy-5-(4-methyl-1H-imidazol-1-yl)pyridin-2-yl)-N-(1-phenylethyl)pyridazin-3-amine], which IC50 is on record?
A: Its IC50 is 7.2 nM.

Q: With `COc1nc(-c2nnc(N[C@@H](C)c3ccc(F)cc3)c(C)c2C)ccc1-n1cnc(C)c1` [Example 15, (S)—N-(1-(4-Fluorophenyl)ethyl)-6-(6-methoxy-5-(4-methyl-1H-imidazol-1-yl)pyridin-2-yl)-4,5-dimethylpyridazin-3-amine] as the molecule, how does the IC50 read?
A: Its IC50 is 67 nM.

Q: For `COc1nc(-c2nnc(N[C@@H](C)c3ccccc3)c(C)c2C)ccc1-n1cnc(C)c1` [Example 17, (S)-6-(6-methoxy-5-(4-methyl-1H-imidazol-1-yl)pyridin-2-yl)-4,5-dimethyl-N-(1-phenylethyl)pyridazin-3-amine], which IC50 is on record?
A: The IC50 was 37 nM.

Q: `COc1nc(-c2nnc(NCc3ccc(F)cc3)c(C)c2C)ccc1-n1cnc(C)c1` [Example 18, N-(4-fluorobenzyl)-6-(6-methoxy-5-(4-methyl-1H-imidazol-1-yl)pyridin-2-yl)-4,5-dimethylpyridazin-3-amine] was tested. Which IC50 did it give?
A: The IC50 was 82 nM.

Q: Which IC50 does the source give for `COc1nc(-c2cc(C)c(N(C)[C@@H](C)c3ccc(F)cc3)nn2)ccc1-n1cnc(C)c1` [Example 19, (S)—N-(1-(4-fluorophenyl)ethyl)-6-(6-methoxy-5-(4-methyl-1H-imidazol-1-yl)pyridin-2-yl)-N,4-dimethylpyridazin-3-amine] here?
A: The IC50 was 240 nM.

Q: `CCN(c1nnc(-c2ccc(-n3cnc(C)c3)c(OC)n2)cc1C)[C@@H](C)c1ccc(F)cc1` [Example 20, (S)—N-ethyl-N-(1-(4-fluorophenyl)ethyl)-6-(6-methoxy-5-(4-methyl-1H-imidazol-1-yl)pyridin-2-yl)-4-methylpyridazin-3-amine] was tested. Which IC50 did it give?
A: Its IC50 is 132 nM.

Q: `CC[C@@H](c1ccc(F)cc1)N(C)c1nnc(-c2ccc(-n3cnc(C)c3)c(OC)n2)cc1C` [Example 21, (S)—N-(1-(4-fluorophenyl)propyl)-6-(6-methoxy-5-(4-methyl-1H-imidazol-1-yl)pyridin-2-yl)-N,4-dimethylpyridazin-3-amine] was tested. Which IC50 did it give?
A: Its IC50 is 61 nM.

Q: Which IC50 does the source give for `COc1nc(-c2ccc(N[C@@H](C)c3ccccc3)nn2)ccc1-n1cnc(C)c1` [Example 22, (S)-6-(6-methoxy-5-(4-methyl-1H-imidazol-1-yl)pyridin-2-yl)-N-(1-phenylethyl)pyridazin-3-amine] here?
A: The IC50 was 16 nM.

Q: With `COc1nc(-c2ccc(NC(C)(C)c3ccc(F)cc3)nn2)ccc1-n1cnc(C)c1` [Example 23, N-(2-(4-Fluorophenyl)propan-2-yl)-6-(6-methoxy-5-(4-methyl-1H-imidazol-1-yl)pyridin-2-yl)pyridazin-3-amine] as the molecule, how does the IC50 read?
A: The IC50 was 22 nM.

Q: How did the IC50 turn out when `COc1nc(-c2nnc(N[C@@H](C)c3ccc(F)cc3)cc2C)ccc1-n1cnc(C)c1` [Example 27, (S)—N-(1-(4-fluorophenyl)ethyl)-6-(6-methoxy-5-(4-methyl-1H-imidazol-1-yl)pyridin-2-yl)-5-methylpyridazin-3-amine] was run?
A: Its IC50 is 21 nM.

Q: With `COc1nc(-c2nnc(N[C@@H](C)c3ccc(F)cc3)c3c2CCC3)ccc1-n1cnc(C)c1` [Example 29, (S)—N-(1-(4-Fluorophenyl)ethyl)-4-(6-methoxy-5-(4-methyl-1H-imidazol-1-yl)pyridin-2-yl)-6,7-dihydro-5H-cyclopenta[d]pyridazin-1-amine] as the molecule, how does the IC50 read?
A: Its IC50 is 12.8 nM.

Q: With `COc1nc(-c2cc(C)c(N[C@@H](C)c3ccc(Cl)cc3)nn2)ccc1-n1cnc(C)c1` [Example 31, (S)—N-(1-(4-chlorophenyl)ethyl)-6-(6-methoxy-5-(4-methyl-1H-imidazol-1-yl)pyridin-2-yl)-4-methylpyridazin-3-amine] as the molecule, how does the IC50 read?
A: Its IC50 is 5.8 nM.

Q: `COc1nc(-c2cc(C)c(N[C@@H](C)c3cccc(Cl)c3)nn2)ccc1-n1cnc(C)c1` [Example 33, (S)—N-(1-(3-chlorophenyl)ethyl)-6-(6-methoxy-5-(4-methyl-1H-imidazol-1-yl)pyridin-2-yl)-4-methylpyridazin-3-amine] was tested. Which IC50 did it give?
A: Its IC50 is 6.8 nM.

Q: With `COc1nc(-c2cc(C)c(N[C@@H](C)c3ccccc3)nn2)ccc1-n1cnc(C)c1` [Example 35, (S)-6-(6-methoxy-5-(4-methyl-1H-imidazol-1-yl)pyridin-2-yl)-4-methyl-N-(1-phenylethyl)pyridazin-3-amine] as the molecule, how does the IC50 read?
A: Its IC50 is 12 nM.

Q: `COc1ccc([C@H](C)Nc2nnc(-c3ccc(-n4cnc(C)c4)c(OC)n3)cc2C)cc1` [Example 36, (S)-6-(6-methoxy-5-(4-methyl-1H-imidazol-1-yl)pyridin-2-yl)-N-(1-(4-methoxyphenyl)ethyl)-4-methylpyridazin-3-amine] was tested. Which IC50 did it give?
A: Its IC50 is 6.5 nM.

Q: How did the IC50 turn out when `COc1nc(-c2cc(C)c(N[C@@H](C)c3ccc(C(F)(F)F)cc3)nn2)ccc1-n1cnc(C)c1` [Example 37, (S)-6-(6-methoxy-5-(4-methyl-1H-imidazol-1-yl)pyridin-2-yl)-4-methyl-N-(1-(4-(trifluoromethyl)phenyl)ethyl)pyridazin-3-amine] was run?
A: Its IC50 is 6.3 nM.

Q: `COc1nc(-c2cc(C)c(N[C@@H](C)c3cccc(F)c3)nn2)ccc1-n1cnc(C)c1` [Example 38, (S)—N-(1-(3-fluorophenyl)ethyl)-6-(6-methoxy-5-(4-methyl-1H-imidazol-1-yl)pyridin-2-yl)-4-methylpyridazin-3-amine] was tested. Which IC50 did it give?
A: The IC50 was 7 nM.

Q: Which IC50 does the source give for `COc1nc(-c2cc(C)c(N[C@@H](C)c3ccc(F)c(F)c3)nn2)ccc1-n1cnc(C)c1` [Example 39, (S)—N-(1-(3,4-difluorophenyl)ethyl)-6-(6-methoxy-5-(4-methyl-1H-imidazol-1-yl)pyridin-2-yl)-4-methylpyridazin-3-amine] here?
A: The IC50 was 6.5 nM.

Q: Which IC50 does the source give for `CC[C@H](Nc1nnc(-c2ccc(-n3cnc(C)c3)c(OC)n2)cc1C)c1ccc(F)cc1` [Example 40, (S)—N-(1-(4-fluorophenyl)propyl)-6-(6-methoxy-5-(4-methyl-1H-imidazol-1-yl)pyridin-2-yl)-4-methylpyridazin-3-amine] here?
A: Its IC50 is 6.5 nM.

Q: `COc1ccccc1[C@H](C)Nc1nnc(-c2ccc(-n3cnc(C)c3)c(OC)n2)cc1C` [Example 41, (S)-6-(6-methoxy-5-(4-methyl-1H-imidazol-1-yl)pyridin-2-yl)-N-(1-(2-methoxyphenyl)ethyl)-4-methylpyridazin-3-amine] was tested. Which IC50 did it give?
A: Its IC50 is 17.5 nM.

Q: Which IC50 does the source give for `COc1nc(-c2cc(C)c(N[C@@H](C)c3ccc(C)cc3)nn2)ccc1-n1cnc(C)c1` [Example 42, (S)-6-(6-methoxy-5-(4-methyl-1H-imidazol-1-yl)pyridin-2-yl)-4-methyl-N-(1-(p-tolyl)ethyl)pyridazin-3-amine] here?
A: The IC50 was 7.5 nM.

Q: Which IC50 does the source give for `COc1nc(-c2cc(C)c(N[C@@H](C)c3cc(C(F)(F)F)cc(C(F)(F)F)c3)nn2)ccc1-n1cnc(C)c1` [Example 43, (S)—N-(1-(3,5-bis(trifluoromethyl)phenyl)ethyl)-6-(6-methoxy-5-(4-methyl-1H-imidazol-1-yl)pyridin-2-yl)-4-methylpyridazin-3-amine] here?
A: The IC50 was 7.5 nM.

Q: `COc1cccc([C@H](C)Nc2nnc(-c3ccc(-n4cnc(C)c4)c(OC)n3)cc2C)c1` [Example 44, (S)-6-(6-methoxy-5-(4-methyl-1H-imidazol-1-yl)pyridin-2-yl)-N-(1-(3-methoxyphenyl)ethyl)-4-methylpyridazin-3-amine] was tested. Which IC50 did it give?
A: Its IC50 is 10.5 nM.
